Laboratory results taken from US8193372B2, “Phosphothiophene and phosphothiazole HCV polymerase inhibitors” (Idenix Pharmaceuticals, Inc., priority 2009, dated 2012).

Tests used:
[1] = test system: Huh-7-derived cell line (Zluc) that harbors an HCV genotype 1b replicon and a luciferase reporter gene; experiment: microbe, parasite or virus in culture; format: cell-based; settings: Hepatitis C virus, 72 h
in vitro = settings: human
[2] = test system: HCV Con1 subgenomic replicon of genotype 1b (GS4.1 cells); experiment: microbe, parasite or virus in culture; format: cell-based, HCV genotype 1b; settings: Hepatitis C virus; for EC50: 72 h
[3] = test system: Huh-7-derived cell line (Zluc) that harbors an HCV genotype 1b replicon and a luciferase reporter gene; experiment: microbe, parasite or virus in culture; format: cell-based; settings: Hepatitis C virus, 72 h; remark: listed apart in the source
[4] = Cytotoxicity (CC50) reported with the HCV replicon ELISA assay; settings: human

Row | Compound | EC50 [1] [µM] | CC50 (in vitro) [µM] | IC50 [2] [µM] | EC50 [2] [µM] | EC50 [3] [µM] | CC50 at 72 hr [4] [µM]
1 | COP(=O)(c1ccc(C)cc1C)N(C)c1cc(-c2ccc(F)cc2)sc1C(=O)O (stereo not shown) [Compound 32, 2-Thiophenecarboxylic acid, 3-N-methyl-N-[(2,4-dimethyl-phenyl)-phosphonamidatemethyl ester]-5-(4-fluorophenyl)] | 0.1 to 8.3 | > 8.3 | 0.1 to 8.3 | 0.1 to 8.3 | > 8.3 | 
2 | CCOP(=O)(Nc1cc(-c2ccc(-c3cc4ncccc4o3)cc2)sc1C(=O)O)c1ccc(Cl)cc1F (stereo not shown) [Compound 160] | < 0.1 | > 8.3 | < 0.1 | < 0.1 | 0.1 to 8.3 | 
3 | COP(=O)(Nc1cc(-c2ccc(C(C)(C)C)cc2)sc1C(=O)O)c1ccc(C)cc1C (stereo not shown) [Compound 156] | 0.1 to 8.3 | > 8.3 | 0.1 to 8.3 | 0.1 to 8.3 | > 8.3 | 
4 | COP(=O)(Nc1cc(-c2ccc(-c3cc4ncccn4n3)cc2)sc1C(=O)O)c1ccc(C)cc1C (stereo not shown) [Compound 169] | < 0.1 |  |  |  | < 0.1 | 
5 | CCOP(=O)(Nc1cc(-c2ccc(C#Cc3cscn3)cc2)sc1C(=O)O)c1ccc(Cl)cc1Cl (stereo not shown) [Compound 24, 3-N-[(2,4-dichloro-phenyl)-phosphonamidateethyl ester]-5-(4-phenyl-ethynyl-1,3-thiazole)-2-thiophenecarboxylic acid] | 0.1 to 8.3 | > 8.3 | < 0.1 | 0.1 to 8.3 | 0.1 to 8.3 | 
6 | COP(=O)(Nc1cc(-c2ccc(-c3cc4ncccc4o3)cc2)sc1C(=O)O)c1ccc(C)cc1C (stereo not shown) [Compound 152] | < 0.1 | > 8.3 | < 0.1 | < 0.1 | < 0.1 | 
7 | CCOP(=O)(Nc1cc(-c2ccc(-c3cc4ncccn4n3)cc2)sc1C(=O)O)c1ccc(Cl)cc1Cl (stereo not shown) [Compound 11, 3-N-[(2,4-dichloro-phenyl)-phosphonamidateethyl ester]-5-(4-pyrazolo[1,5-a]pyrimidin-2-ylphenyl)-2-thiophenecarboxylic acid] | < 0.1 | > 8.3 | < 0.1 | < 0.1 | 0.1 to 8.3 | 
8 | COP(=O)(Nc1cc(-c2ccc(Cl)cc2)sc1C(=O)O)c1ccc(C)cc1C (stereo not shown) [Compound 155] | 0.1 to 8.3 | > 8.3 | < 0.1 | 0.1 to 8.3 | > 8.3 | 
9 | COP(=O)(Nc1cc(-c2ccc(-c3cc4ccccc4s3)cc2)sc1C(=O)O)c1ccc(C)cc1C (stereo not shown) [Compound 153] | < 0.1 | > 8.3 | < 0.1 | < 0.1 | 0.1 to 8.3 | 
10 | COP(=O)(Nc1cc(-c2ccc(F)cc2)sc1C(=O)O)c1ccc(C)cc1C (stereo not shown) [Compound 21, 2-Thiophenecarboxylic acid, 3-N-[(2,4-dimethyl-phenyl)-phosphonamidatemethyl ester]-5-(4-fluorophenyl)] | 0.1 to 8.3 | > 8.3 | 0.1 to 8.3 | 0.1 to 8.3 | > 8.3 | 
11 | Cc1ccc(P(=O)(Nc2cc(-c3ccc(Cl)cc3)sc2C(=O)O)OCC(C)C)c(C)c1 (stereo not shown) [Compound 86] |  |  | 0.1 to 8.3 | 0.1 to 8.3 |  | > 8.3
12 | COP(=O)(Nc1cc(-c2ccccc2)sc1C(=O)O)c1ccc(C)cc1C (stereo not shown) [Compound 162] | 0.1 to 8.3 |  |  |  | > 8.3 | 
13 | Cc1ccc(P(=O)(Nc2cc(-c3ccc(Cl)cc3)sc2C(=O)O)OCCc2ccc(F)cc2)c(C)c1 (stereo not shown) [Compound 92] |  |  | 0.1 to 8.3 | 0.1 to 8.3 |  | > 8.3
